Tests used:
Experiment in all cases: relative viability (nuclei count vs DMSO), 5 days (fraction); higher = more cells survive
CX-5461 + OSI-027 = compound: Cc1cnc(CNC(=O)c2c(=O)c3ccc(N4CCCN(C)CC4)nc3n3c2sc2ccccc23)cn1 [CX-5461] + COc1cccc2cc(-c3nc([C@H]4CC[C@H](C(=O)O)CC4)n4ncnc(N)c34)[nH]c12 [OSI-027] (partner 0.5 µM)
Outline: (§1)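 Five library-drug doses in √10 steps were combined with a fixed anchor-drug dose, or a single drug was given alone, by pin tool to lung cancer cell lines in 1536-well plates the day after seeding. Nuclei were stained and counted after 5 days. Relative viability is the nuclei count in treated wells over that in vehicle wells, taken as the median of duplicate plates.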

CX-5461 + Crizotinib = compound: Cc1cnc(CNC(=O)c2c(=O)c3ccc(N4CCCN(C)CC4)nc3n3c2sc2ccccc23)cn1 [CX-5461] + C[C@@H](Oc1cc(-c2cnn(C3CCNCC3)c2)cnc1N)c1c(Cl)ccc(F)c1Cl [Crizotinib] (partner 1 µM)
Outline: as §1

CX-5461 + Decitabine = compound: Cc1cnc(CNC(=O)c2c(=O)c3ccc(N4CCCN(C)CC4)nc3n3c2sc2ccccc23)cn1 [CX-5461] + Nc1ncn([C@H]2C[C@H](O)[C@@H](CO)O2)c(=O)n1 [Decitabine] (partner 2 µM)
Outline: as §1

IMD-0354 + OSI-027 = compound: O=C(Nc1cc(C(F)(F)F)cc(C(F)(F)F)c1)c1cc(Cl)ccc1O [IMD-0354] + COc1cccc2cc(-c3nc([C@H]4CC[C@H](C(=O)O)CC4)n4ncnc(N)c34)[nH]c12 [OSI-027] (partner 0.5 µM)
Outline: as §1

Row | Cell Line | relative viability (CX-5461 + OSI-027; first compound 0.01 µM) | relative viability (CX-5461 + OSI-027; first compound 0.03162 µM) | relative viability (CX-5461 + OSI-027; first compound 0.1 µM) | relative viability (CX-5461 + OSI-027; first compound 0.3162 µM) | relative viability (CX-5461 + OSI-027; first compound 1 µM) | relative viability (CX-5461 + Crizotinib; first compound 0.01 µM) | relative viability (CX-5461 + Crizotinib; first compound 0.03162 µM) | relative viability (CX-5461 + Crizotinib; first compound 0.1 µM) | relative viability (CX-5461 + Crizotinib; first compound 0.3162 µM) | relative viability (CX-5461 + Crizotinib; first compound 1 µM) | relative viability (CX-5461 + Decitabine; first compound 0.01 µM) | relative viability (CX-5461 + Decitabine; first compound 0.03162 µM) | relative viability (CX-5461 + Decitabine; first compound 0.1 µM) | relative viability (CX-5461 + Decitabine; first compound 0.3162 µM) | relative viability (CX-5461 + Decitabine; first compound 1 µM) | relative viability (IMD-0354 + OSI-027; first compound 0.04 µM) | relative viability (IMD-0354 + OSI-027; first compound 0.1265 µM) | relative viability (IMD-0354 + OSI-027; first compound 0.4 µM) | relative viability (IMD-0354 + OSI-027; first compound 1.265 µM) | relative viability (IMD-0354 + OSI-027; first compound 4 µM)
1 | COR-L23 | 0.802 | 0.808 | 0.7 | 0.835 | 0.472 | 0.63 | 0.797 | 0.482 | 0.602 | 0.256 | 0.424 | 0.424 | 0.371 | 0.489 | 0.219 | 0.767 | 0.679 | 0.397 | 0.145 | 0.178
2 | NCI-H2087 | 0.61 | 0.499 | 0.474 | 0.369 | 0.407 | 0.989 | 0.969 | 0.874 | 0.813 | 0.593 | 0.277 | 0.306 | 0.213 | 0.288 | 0.188 | 0.496 | 0.646 | 0.189 | 0.119 | 0.112
3 | LC-2-ad | 0.919 | 0.866 | 0.705 | 0.718 | 0.546 | 0.491 | 0.522 | 0.363 | 0.286 | 0.454 | 0.805 | 0.867 | 0.809 | 0.795 | 0.79 | 0.827 | 0.852 | 0.441 | 0.298 | 0.193
4 | NCI-H1915 | 0.664 | 0.692 | 0.601 | 0.599 | 0.605 | 0.937 | 0.934 | 0.892 | 0.888 | 0.902 | 0.266 | 0.259 | 0.284 | 0.244 | 0.283 | 0.589 | 0.629 | 0.107 | 0.241 | 0.155
5 | NCI-H1944 | 0.49 | 0.446 | 0.377 | 0.252 | 0.259 | 1.16 | 1.38 | 1.18 |  | 1.05 | 0.478 | 0.443 | 0.429 | 0.371 | 0.44 | 0.441 | 0.445 | 0.375 | 0.317 | 0.161
6 | NCI-H2023 | 0.387 | 0.386 | 0.184 | 0.329 | 0.0856 | 0.584 | 0.558 |  | 0.391 | 0.0858 | 0.223 | 0.178 |  | 0.178 | 0.0728 | 0.484 | 0.382 | 0.274 | 0.105 | 0.108
7 | COR-L 105 | 0.767 | 0.665 | 0.532 | 0.391 | 0.445 | 1.12 | 0.992 | 0.861 | 0.745 | 0.325 | 0.668 | 0.612 | 0.609 | 0.512 | 0.436 | 0.812 | 0.697 | 0.533 | 0.363 | 0.23
8 | RERF-LC-KJ | 0.56 | 0.628 | 0.572 | 0.528 | 0.434 | 0.807 | 0.562 | 0.833 | 0.774 | 0.778 | 0.686 | 0.677 | 0.381 | 0.528 | 0.41 | 0.649 | 0.628 | 0.493 | 0.198 | 0.214
9 | LXF-289 | 0.755 | 0.924 | 0.892 | 0.416 | 0.581 | 0.805 | 0.882 | 0.823 | 0.399 | 0.725 | 0.412 | 0.377 | 0.404 |  | 0.351 | 0.871 | 0.772 | 0.492 | 0.34 | 0.115
10 | PC-14 | 0.927 | 1.01 | 0.85 | 0.729 | 0.236 | 1.02 | 1.05 | 0.957 | 0.863 | 0.91 | 0.246 | 0.202 | 0.152 | 0.204 | 0.114 | 0.972 | 0.805 | 0.284 | 0.115 | 0.0708
11 | NCI-H650 | 0.578 | 0.558 | 0.483 | 0.536 | 0.352 | 0.666 | 0.961 | 0.668 | 0.309 | 0.631 | 0.328 | 0.272 | 0.298 | 0.32 | 0.313 | 0.591 | 0.498 | 0.447 | 0.29 | 0.177
12 | NCI-H1666 | 0.894 | 0.875 | 0.664 | 0.756 | 0.636 | 1.03 | 0.838 |  | 1 | 0.618 | 0.768 | 0.671 | 0.737 | 0.701 | 0.731 | 0.86 | 0.841 | 0.641 | 0.415 | 0.302
13 | NCI-H2085 | 0.845 | 0.75 | 0.625 | 0.557 | 0.557 | 0.908 | 0.951 | 0.833 | 0.785 | 0.555 | 0.58 | 0.524 | 0.569 | 0.563 | 0.517 | 0.773 | 0.78 | 0.522 | 0.362 | 0.212
14 | NCI-H1734 | 0.586 | 0.646 | 0.706 | 0.499 | 0.445 | 0.666 | 0.82 | 0.742 | 0.536 | 0.623 | 0.509 | 0.489 | 0.557 | 0.483 | 0.483 | 0.625 | 0.662 | 0.44 | 0.281 | 0.137
15 | NCI-H2126 | 0.75 | 0.684 | 0.717 | 0.783 | 0.63 | 1.05 | 1.11 | 1.08 | 1.07 | 0.975 | 0.573 | 0.559 | 0.618 | 0.64 | 0.567 | 0.752 | 0.609 | 0.594 | 0.588 | 0.524
16 | EMC-BAC-2 | 0.334 | 0.376 | 0.338 | 0.322 | 0.242 | 0.782 | 0.839 | 0.725 | 0.541 | 0.74 | 0.97 | 0.994 | 0.709 | 0.655 | 0.473 | 0.403 | 0.386 | 0.33 | 0.336 | 0.3
17 | NCI-H1993 | 0.562 | 0.591 | 0.625 | 0.511 | 0.448 | 0.972 | 0.819 | 0.862 | 0.822 | 0.825 | 1.37 | 0.64 | 0.668 | 0.29 | 0.577 | 0.576 | 0.504 | 0.562 | 0.522 | 0.482
18 | NCI-H520 | 0.193 | 0.247 | 0.24 | 0.197 | 0.266 | 0.736 | 0.925 | 0.777 | 0.336 | 0.531 | 0.529 | 0.52 | 0.483 | 0.465 | 0.362 | 0.297 | 0.27 | 0.194 | 0.283 | 0.129
19 | NCI-H647 | 0.742 | 0.565 | 0.669 | 0.566 | 0.467 | 1.02 | 1.18 | 1.05 | 1.06 | 0.401 | 0.443 | 0.461 | 0.325 | 0.417 | 0.15 | 0.836 | 0.599 | 0.367 | 0.364 | 0.0879
20 | NCI-H1792 | 0.657 | 0.786 | 0.763 | 0.759 | 0.659 | 0.957 | 0.979 | 0.949 | 0.978 | 0.913 | 0.664 | 0.67 | 0.646 | 0.542 | 0.534 | 0.791 | 0.701 | 0.35 | 0.394 | 0.418
21 | SW 1573 | 0.61 | 0.621 | 0.401 | 0.477 | 0.179 | 0.806 | 0.817 | 0.889 | 0.633 | 0.657 | 0.474 | 0.41 | 0.114 | 0.392 | 0.214 | 0.849 | 0.566 | 0.349 | 0.124 | 0.0864
22 | ChaGo-K-1 | 0.578 | 0.636 | 0.537 | 0.331 | 0.315 | 1.17 | 1.21 | 1.06 | 0.341 | 0.79 | 0.554 | 0.485 | 0.547 | 0.543 | 0.431 | 0.725 | 0.514 | 0.384 | 0.269 | 0.232
23 | NCI-H1650 | 0.678 | 0.643 | 0.283 | 0.497 | 0.182 | 1.08 | 0.996 |  | 0.948 | 0.149 | 0.395 | 0.441 | 0.344 | 0.378 | 0.207 | 0.704 | 0.491 | 0.362 | 0.189 | 0.259
24 | NCI-H2009 | 0.696 | 0.651 | 0.471 | 0.697 | 0.516 | 1.07 | 1.02 | 1.09 | 1.02 | 0.697 | 0.41 | 0.374 | 0.335 | 0.37 | 0.308 | 0.703 | 0.564 | 0.416 | 0.133 | 0.109
25 | LOU-NH91 | 0.756 | 0.728 | 0.714 |  | 0.727 | 0.756 | 0.784 | 0.745 | 0.728 | 0.759 | 0.844 | 0.866 | 0.79 | 0.613 | 0.783 | 0.77 | 0.692 | 0.335 | 0.27 | 0.198
26 | NCI-H2405 | 0.607 | 0.639 | 0.717 | 0.632 | 0.616 | 0.827 | 0.949 | 0.843 | 0.549 | 0.821 | 0.829 | 0.779 | 0.773 | 0.64 | 0.608 | 0.696 | 0.601 | 0.552 | 0.312 | 0.307
27 | LCLC-97TM1 | 0.483 | 0.591 | 0.49 |  | 0.484 | 0.436 | 0.422 | 0.286 |  | 0.436 | 0.225 | 0.233 | 0.238 | 0.208 | 0.229 | 0.519 | 0.489 | 0.265 | 0.186 | 0.148

From the supplement of paper PMC10307832
